Test results: patent US12168003B2, “Selective inhibition of T follicular helper cells for treatment of autoimmune disorders” (priority 2019, dated 2024)

Test system: eIF4E
Assay: Silencing of eIF4E in OT2 T cells by lentivirus shRNA, adoptive transfer and OVA/Alum
Format: in vivo, mouse
Procedure: HEK 293T cells were transfected with pTRIPZ plasmid expressing NS shRNA ([…] (SEQ ID NO: 5)) or eIF4E shRNA ([…] (SEQ ID NO: 6)) along with psPAX2 and pMD2.G in Lipofectamine™ 2000 and Opti-MEM®. Supernatant was collected 48 hours later and centrifuged at 3000×g for 15 minutes at room temperature. Cell debris pellet was discarded and supernatant was incubated with PEG-it™ (System Biosciences) at 4° C. for 24 to 48 hours and then centrifuged for 1500×g for 30 minutes at 4° C. Supernatant was discarded and viral pellet was resuspended in cold PBS and frozen at −80° C. until use.
CD4^+ T cells were isolated (EasySep™ CD4^+ T cell isolation; StemCell) from OT2 mice (>95% Vβ5.1/5.2) using negative selection. OT2 T cells were activated in mouse T cell media (RPMI containing 10% FBS, 55 μM 2-ME, 25 mM HEPES, 100 uM Sodium pyruvate, 2 mM Glutamax, non-essential amino acids, 100 U/mL penicillin, and 100 μg/mL streptomycin) and soluble 1 μg/mL anti-CD28 with 50 U/mL IL-2 on plates coated with 10 μg/mL anti-CD3 for 3 days. Following activation, cells were spin-transfected at 3×10^6 cells in 1 mL in 6-well plates with lentivirus and 4 μg/mL dextran (Sigma D9885) at 2,000×g for 60 minutes at 30° C. with no acceleration or break (Kurachi et al., “Optimized Retroviral Transduction of Mouse T Cells for in Vivo Assessment of Gene Function,” Nat. Protoc. 12(9):1980-1998 (2017), which is hereby incorporated by reference in its entirety). Following spinoculation, cells were centrifuged and supernatant was decanted and replaced with fresh media. The next day (day 5) 2 μg/mL puromycin (Gibco) and PMA/ionomycin (BioLegend®) are added to the T cells and incubated for 3 days. On day 8, media was replaced and cells were incubated with PMA/ionomycin again for another 3 days. On day 10, it was confirmed that control cells not transfected with virus were >98% dead and 1.5×10^6 OT2 NS or OT2 eIF4Esh were transferred i.p. to CD45.1 mice. One day following adoptive transfer, mice were placed on doxycycline diet (200 mg/kg) and remained on this diet for the entire study. […]

In the case of “GCGTCAAGCAATCGAGATTTG (SEQ ID NO: 6) (expressed or natural sequence) [eIF4E shRNA, doxycycline-inducible eIF4E shRNA expressed from pTRIPZ lentivirus in OT2 T cells]”, the “eIF4E silencing in spleen and blood transduced OT2 T cells (lower eIF4E level)” value (Dox-inducible shRNA, seven days following Dox addition, vs NS shRNA) is reported as 3 fold, the “fewer TFH cells formed by OT2 T cells” value (day 15 post-transfer, OVA/Alum, vs control NS OT2 cells) is reported as 3 fold and the “level of OT2 T cells in the spleen” value (day 15 post-transfer, vs NS OT2 cells) is reported as “no impact”.
